Data taken from patent publication US20230301998A1, “METHODS AND COMPOSITIONS FOR INDUCTION OF ANTITUMOR IMMUNITY” (Sanford Burnham Prebys Medical Discovery Institute, priority 2020, published 2023).
Each block holds one compound with its values, some of them ahead of it.

Legend:
PRMT5 [1] = target: T1, PRMT5 (Homo sapiens, UniProt O14744); assay: IP/immunoblot of IFI16 Arg methylation and SHARPIN interaction in human melanoma cells after PRMT5 inhibition; assay type: cell-based
T1 construct: endogenous in cells; host or cells: A375 and WM115 human melanoma cells
Experimental: Immunoblotting was performed using standard protocols. Melanoma cells were lysed by incubation in RIPA buffer [50 mM Tris-HC1, pH7.4, 1% (v/v) NP40, 0.1% (w/v) sodium deoxycholate, 0.1% (w/v) sodium dodecyl sulfate, 150 mM NaCl, 1mM EDTA, and protease and phosphatase inhibitor cocktails (Thermo Fisher Scientific)] and freeze-thawed 3 times. For immunoprecipitation HEK293T cells were lysed in 1% Triton X-100 buffer [50 mM Tris-HC1, pH7.4, 1% (v/v) Triton X-100, 150 mM NaCl, 1 mM EDTA, and protease and phosphatase inhibitor cocktails (Thermo Fisher Scientific)] and freeze-thawed 3 times. Lysates were then incubated overnight with indicated antibodies and then for 4 hr with protein A/G agarose beads (Santa Cruz Biotechnology) under gentle mixing. Proteins were eluted by addition of lysis buffer and boiled in Laemmli buffer before separation on SDS-PAGE and transfer to a PVDF membrane. Membranes were incubated for 1 h at room temperature with blocking solution [TBS (Tris-buffered Saline); 10 mM Tris-HC1, pH8.0, 150 mM NaCl)] containing 0.1% Tween 20 and 5% nonfat milk followed by incubation overnight at 4° C. with appropriate primary antibodies. Membranes were washed with TBS and incubated 1 h at room temperature with secondary antibody [Alexa 680-conjugated goat anti-rabbit, goat anti-mouse, donkey anti-goat (Life Technologies) or IRDye 800-conjugated goat anti-mouse (Rockland Immunochemicals)], or HRP-conjugated anti-mouse or anti-rabbit IgG antibodies. TidyBlot anti-rabbit secondary antibody (Bio-Rad) was used to detect immunoprecipitated proteins (SHARPIN). Blots were treated with HRP-conjugated antibodies and SuperSignal West Pico or Femto chemiluminescent substrate (ThermoFisher scientific). Protein bands were visualized and quantified using an Odyssey Infrared Imaging System (LiCor Biosciences) or ChemiDoc Imaging System (Bio-Rad). […] STING polymer was analyzed using BlueNative(BN) PAGE (3). […] STING dimers and polymers were detected using a STING antibody (D2P2F, Cell Signaling),Immunofluorescence

PRMT5 [2] = target: T2, PRMT5 (Mus musculus, UniProt Q8CIG8); assay: IP/immunoblot of IFI204 Arg methylation and SHARPIN interaction in B16 cells after PRMT5 inhibition; assay type: cell-based
T2 construct: endogenous in cells; host or cells: B16F10 murine melanoma cells (ATCC)
Experimental: Immunoblotting was performed using standard protocols. Melanoma cells were lysed by incubation in RIPA buffer [50 mM Tris-HC1, pH7.4, 1% (v/v) NP40, 0.1% (w/v) sodium deoxycholate, 0.1% (w/v) sodium dodecyl sulfate, 150 mM NaCl, 1mM EDTA, and protease and phosphatase inhibitor cocktails (Thermo Fisher Scientific)] and freeze-thawed 3 times. For immunoprecipitation HEK293T cells were lysed in 1% Triton X-100 buffer [50 mM Tris-HC1, pH7.4, 1% (v/v) Triton X-100, 150 mM NaCl, 1 mM EDTA, and protease and phosphatase inhibitor cocktails (Thermo Fisher Scientific)] and freeze-thawed 3 times. Lysates were then incubated overnight with indicated antibodies and then for 4 hr with protein A/G agarose beads (Santa Cruz Biotechnology) under gentle mixing. Proteins were eluted by addition of lysis buffer and boiled in Laemmli buffer before separation on SDS-PAGE and transfer to a PVDF membrane. […] Protein bands were visualized and quantified using an Odyssey Infrared Imaging System (LiCor Biosciences) or ChemiDoc Imaging System (Bio-Rad). […] STING polymer was analyzed using BlueNative(BN) PAGE (3). […] STING dimers and polymers were detected using a STING antibody (D2P2F, Cell Signaling),Immunofluorescence

cGAS/STING pathway = assay: dsDNA (V70mer)-stimulated cGAS/STING signalling in B16 cells (qPCR, western blot); assay type: cell-based, mouse
B16F10 cells = assay: B16F10 syngeneic melanoma tumor model in C57BL/6 mice (tumor volume, response, survival, immune phenotyping); assay type: in vivo, mouse; conditions: for Non-responder / Responder: number of mice
Experimental: Animal experiments. All animal experiments were conducted with approval of the Institutional Animal Care and Use Committee of Sanford Burnham Prebys Medical Discovery Institute (AUF#18-044). The murine melanoma lines B16F10, YUMM1.7 , and YUMMER1.7 were injected subcutaneously (2.0×10^5 cells of B16F10 or YUMM1.7; 4.0 ×10^5 cells of YUMMER1.7) into the lower right flank of 6-8-week-old male C57BL/6 (B16F10, YUMM1.7, YUMMER1.7) or Nod-Scid-Gamma (NSG) (B16F10, YUMMER1.7) mice. To induce transduced inducible shPRMT5, doxycycline (10 mg/ml, Fisher Bioreagents) was prepared in methylcellulose solution (0.5% hydroxylmethylcellulose, 0.2% Tween80) and administered to mice (0.2 ml, oral gavage, QD)Tumor sizes were monitored using calipers. At indicated time points, tumors were collected, 21 weighed and assessed for immune phenotypes using flow cytometry or immunofluorescence. To assess efficacy of immune checkpoint antibodies, mice were grafted with B16F10 or YUMM1.7 (2.0×10^5 cells, s.c.) cells and treated with 200 μg control IgG [rat IgG2a; BE0089 (BioXcell)], anti-CD152 (CTLA-4) [9H10 (BE0131, BioXcell)] or anti-CD279 (PD-1) [RMP1-14 (BE0146, BioXcell)]. Antibodies were injected (i.p.) 3 - 5 times (every 3 days starting from the indicated date). […] Antibodies were injected (i.p.) every 3 days starting one day prior to tumor cell inoculation. The efficiency of depletion was assessed using flow cytometry of blood samples collected at day 8 after tumor inoculation. To assess percent survival of animals, mice bearing tumors exceeding 2,000 mm^3 were defined as “dead”. Gene set enrichment (GSEA) and Ingenuity Pathway (IPA) analyses
(§1) Statistical analyses were performed using Prism software (version 7.00, GraphPad). For comparison of means of two groups with normal (or approximately normal) distributions, an un-paired t-test was applied. To compare means between >2 groups, one-way analysis of variance (ANOVA) was used with multiple comparison corrections (Dunnett's or Tukey's test). For animal experiments, two-way ANOVA (time and treatment) was used with Tukey's multiple comparison test. For Kaplan-Meier plots to compare overall survival, a log-rank test was used to determine significance of differences between groups. To evaluate response to therapy in a mouse model, Fisher's exact test (version 7.00, GraphPad) was used. For that analysis, a tumor with volume <50% of control tumors was defined as “responding to treatment”. For all analyses, a difference with p<0.05 was considered significant, unless specified.
For immune phenotyping, B16F10 tumors were collected and processed by chopping and mincing using a tube-secured cell strainer (70 p.m poresize, Falcon) to prepare single cells for flow cytometry. YUMMER1.7 cells were processed by chopping, following incubation in Collargenase D solution [0.1% (w/v) Collagenase D, 0.5% (w/v) BSA, 100 μg/ml DNase in PBS] for 1 hr at 30° C. and mincing using cells strainer. […] All antibodies were from Biolegend. Stained cells were fixed in 1% formaldehyde (Sigma) in PBS (pH7.4) for 15 min at 4° C. and analyzed with BD LSRFortessa (BD Biosciences) flow cytometry. For intranuclear staining of FoxP3, cells were fixed and permearbilized using a FoxP3/Transcription factor Fixation/Permearbilization kit (ThermoFisher Scientific). […] Cells were stained with antibody cocktail for surface markers [CD45.2, CD4, and CD8] and followed by staining with intraceullar cytokine antibodies [IFN gamma (APC), TNF alpha(FITC) and IL-2(PE)]. The number of specific immune cells per gram of tumor was calculated based on the percentage of specified immune cells identified in FACS (relative to the total number of tumors cells) per tumor weight. […] Cells were fixed and analyzed as above. To assess effects efficiency of in vivo depletion of CD8 T or NK cells, immune cells were isolated from mouse blood and RBCs were lysed using hypotonic buffer [15 mM NH4C1, 10 mM KHCO3, 0.1mM Na2EDTA] for 1 hr at 4° C.

YUMM1.7 cells = assay: YUMM1.7 syngeneic melanoma tumor model in C57BL/6 mice (tumor volume, response); assay type: in vivo, mouse; conditions: for Non-responder / Responder: number of mice
Experimental: Animal experiments. All animal experiments were conducted with approval of the Institutional Animal Care and Use Committee of Sanford Burnham Prebys Medical Discovery Institute (AUF#18-044). The murine melanoma lines B16F10, YUMM1.7 , and YUMMER1.7 were injected subcutaneously (2.0×10^5 cells of B16F10 or YUMM1.7; 4.0 ×10^5 cells of YUMMER1.7) into the lower right flank of 6-8-week-old male C57BL/6 (B16F10, YUMM1.7, YUMMER1.7) or Nod-Scid-Gamma (NSG) (B16F10, YUMMER1.7) mice. To induce transduced inducible shPRMT5, doxycycline (10 mg/ml, Fisher Bioreagents) was prepared in methylcellulose solution (0.5% hydroxylmethylcellulose, 0.2% Tween80) and administered to mice (0.2 ml, oral gavage, QD)Tumor sizes were monitored using calipers. At indicated time points, tumors were collected, 21 weighed and assessed for immune phenotypes using flow cytometry or immunofluorescence. To assess efficacy of immune checkpoint antibodies, mice were grafted with B16F10 or YUMM1.7 (2.0×10^5 cells, s.c.) cells and treated with 200 μg control IgG [rat IgG2a; BE0089 (BioXcell)], anti-CD152 (CTLA-4) [9H10 (BE0131, BioXcell)] or anti-CD279 (PD-1) [RMP1-14 (BE0146, BioXcell)]. Antibodies were injected (i.p.) 3 - 5 times (every 3 days starting from the indicated date). […] To deplete NK or CD8+ cells, mice were treated with anti-NK1.1 antibody [PK136 (BE0036, BioXcell)] or anti-CD8 antibody [2.43(BE0061, BioXcell), respectively; controls were treated with 200 μtg IgG [rat IgG2b (BE0090, BioXcell)]. Antibodies were injected (i.p.) every 3 days starting one day prior to tumor cell inoculation. The efficiency of depletion was assessed using flow cytometry of blood samples collected at day 8 after tumor inoculation. To assess percent survival of animals, mice bearing tumors exceeding 2,000 mm^3 were defined as “dead”. Gene set enrichment (GSEA) and Ingenuity Pathway (IPA) analyses
as §1

[3] = system: Nlrc5 and Nlrc5 target genes; assay: Expression of antigen presentation genes / surface MHCI in B16 cells; assay type: cell-based, mouse; conditions: B16 cells, MTA 100 μM for 24 hr, qPCR (FIG. 14E)
RIG-I/TLR3 = assay: dsRNA poly(I:C)-induced type I interferon response in B16 cells (qPCR); assay type: cell-based, mouse; conditions: B16 melanoma cells, poly(I:C) 250 ng/ml 6 hr (FIG. 12J)
[4] = FIG. 17E: B16 in C57BL/6, PRMT5i GSK3326595 40 mg/kg from day 10, anti-PD-1 200 μg/mouse days 11, 14, 17, responder = tumor volume <50% of control
[5] = FIG. 18C: B16F10 in syngeneic mice, PRMT5i GSK3326595 40 mg/kg QD from day 6, anti-PD1 days 8, 11, 14, 17
[6] = FIG. 17F: YUMM1.7 in C57BL/6, PRMT5i from day 7, anti-PD-1 days 8, 11, 14, 17
[7] = FIG. 17G: YUMM1.7 in C57BL/6, anti-CD8 200 μg/mouse every three days, PRMT5i from day 8, anti-PD-1 days 9, 12, 15, 18

T1 sequence (O14744 whole entry): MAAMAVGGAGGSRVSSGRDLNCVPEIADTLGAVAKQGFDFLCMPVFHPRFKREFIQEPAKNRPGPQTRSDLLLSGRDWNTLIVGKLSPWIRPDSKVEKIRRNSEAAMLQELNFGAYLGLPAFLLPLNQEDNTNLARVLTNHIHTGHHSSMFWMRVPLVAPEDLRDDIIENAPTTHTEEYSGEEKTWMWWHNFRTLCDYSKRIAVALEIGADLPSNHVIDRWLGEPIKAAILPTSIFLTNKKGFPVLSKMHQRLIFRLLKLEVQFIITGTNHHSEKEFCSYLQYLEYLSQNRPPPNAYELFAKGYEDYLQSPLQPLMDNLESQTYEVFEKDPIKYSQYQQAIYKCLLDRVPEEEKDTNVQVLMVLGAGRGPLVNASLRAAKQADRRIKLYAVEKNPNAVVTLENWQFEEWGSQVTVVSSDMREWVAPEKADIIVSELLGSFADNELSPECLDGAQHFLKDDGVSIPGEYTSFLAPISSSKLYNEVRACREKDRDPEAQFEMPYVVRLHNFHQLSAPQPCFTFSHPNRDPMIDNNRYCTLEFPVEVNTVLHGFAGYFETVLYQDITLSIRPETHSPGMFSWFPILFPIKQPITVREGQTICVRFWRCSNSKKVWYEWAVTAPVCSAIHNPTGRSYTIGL
T1 sequence (Q9BQA1 whole entry partner): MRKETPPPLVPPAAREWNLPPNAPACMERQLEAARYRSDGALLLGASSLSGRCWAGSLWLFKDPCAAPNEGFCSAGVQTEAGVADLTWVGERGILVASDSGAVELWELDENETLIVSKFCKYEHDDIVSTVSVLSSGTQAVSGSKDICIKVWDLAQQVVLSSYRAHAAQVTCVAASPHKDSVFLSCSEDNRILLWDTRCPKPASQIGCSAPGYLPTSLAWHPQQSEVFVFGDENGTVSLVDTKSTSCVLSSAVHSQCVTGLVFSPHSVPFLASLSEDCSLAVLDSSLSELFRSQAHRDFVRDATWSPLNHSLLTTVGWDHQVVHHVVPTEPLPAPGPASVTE
T2 sequence (Q8CIG8 whole entry): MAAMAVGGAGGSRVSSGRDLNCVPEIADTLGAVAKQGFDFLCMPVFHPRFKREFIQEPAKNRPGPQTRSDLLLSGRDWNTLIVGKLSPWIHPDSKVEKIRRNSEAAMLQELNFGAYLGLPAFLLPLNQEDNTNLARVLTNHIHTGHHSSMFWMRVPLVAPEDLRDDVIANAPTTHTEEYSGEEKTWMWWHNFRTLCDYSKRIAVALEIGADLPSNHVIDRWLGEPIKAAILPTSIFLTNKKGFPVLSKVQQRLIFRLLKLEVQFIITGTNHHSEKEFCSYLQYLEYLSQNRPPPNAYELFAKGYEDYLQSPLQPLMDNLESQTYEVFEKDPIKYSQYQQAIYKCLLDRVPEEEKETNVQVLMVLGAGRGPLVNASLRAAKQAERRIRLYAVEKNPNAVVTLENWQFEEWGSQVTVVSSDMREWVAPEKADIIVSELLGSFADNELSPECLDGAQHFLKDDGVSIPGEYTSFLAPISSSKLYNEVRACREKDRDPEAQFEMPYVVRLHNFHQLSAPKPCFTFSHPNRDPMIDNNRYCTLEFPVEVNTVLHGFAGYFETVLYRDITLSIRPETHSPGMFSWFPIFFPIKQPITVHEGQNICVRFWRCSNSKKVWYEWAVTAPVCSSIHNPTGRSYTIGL
T2 sequence (Q99J09 whole entry partner): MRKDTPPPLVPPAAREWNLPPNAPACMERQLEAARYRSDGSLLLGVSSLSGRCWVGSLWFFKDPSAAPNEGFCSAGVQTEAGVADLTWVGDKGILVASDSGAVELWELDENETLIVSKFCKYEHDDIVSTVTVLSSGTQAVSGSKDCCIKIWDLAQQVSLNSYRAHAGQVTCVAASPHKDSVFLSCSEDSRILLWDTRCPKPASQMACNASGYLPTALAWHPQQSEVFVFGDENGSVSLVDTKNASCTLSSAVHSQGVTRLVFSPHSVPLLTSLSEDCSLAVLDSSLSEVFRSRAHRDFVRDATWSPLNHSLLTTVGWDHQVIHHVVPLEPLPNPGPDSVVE

decrease in IFI16 methylation (PRMT5 [1]; A375 melanoma cells, EPZ015666 10 μM (FIG. 8E)): 50%
degree of interaction between IFI16 and SHARPIN (PRMT5 [1]; A375 melanoma cells, EPZ015666 10 μM (FIG. 10C)): enhanced
decrease in IFI16 methylation (PRMT5 [1]; WM115 cells (MTAP-deleted), EPZ015666 10 μM (FIG. 10D)): 15%
IFI204 interaction with SHARPIN (PRMT5 [2]; EPZ015666 10 μM (FIG. 8D)): stronger interaction with SHARPIN
reduced IFI204 methylation (PRMT5 [2]; EPZ015666 10 μM (FIG. 8F)): 57%
Compound: O=C(NC[C@H](O)CN1CCc2ccccc2C1)c1cc(NC2COC2)ncn1 [EPZ015666]
expression of Ifnb1, Cc15 and Cxcl10 (cGAS/STING pathway; B16 cells treated 24 hr, then V70mer dsDNA 500 ng/ml 6 h, qPCR (FIG. 11B)): increased
TBK1-IRF3 signaling (cGAS/STING pathway; B16 melanoma, V70mer 1.5 μg/ml, western blot (FIG. 11G)): activated TBK1-IRF3 signaling

Compound: CC(=O)N1CCC(Nc2cc(C(=O)NC[C@H](O)CN3CCc4ccccc4C3)ncn2)CC1 [GSK3326595]
immune cell infiltration or activation in tumors (B16F10 cells; B16F10, PRMT5i monotherapy 40 mg/kg QD from day 8, tumors day 15, flow cytometry (FIGS. 18E-G)): notable changes were not observed
response rate across experiments (B16F10 cells; B16 and YUMM1.7 models, FIGS. 17E-F, 18C-D, table 5): 14.3˜66.7%
Non-responder (B16F10 cells; [4]): 6
Responder (B16F10 cells; [4]): 1
Response rate (%) (B16F10 cells; FIG. 17E: B16 in C57BL/6, PRMT5i from day 10, anti-PD-1 days 11, 14, 17, percent of responders in group): 14.3%
Response rate (%) (B16F10 cells; FIG. 18C: B16F10, PRMT5i 40 mg/kg QD from day 6, anti-PD1 days 8, 11, 14, 17): 66.7%
Non-responder (B16F10 cells; [5]): 2
Responder (B16F10 cells; [5]): 4
Response rate (%) (YUMM1.7 cells; [6]): 28.6%
Non-responder (YUMM1.7 cells; [6]): 5
Responder (YUMM1.7 cells; [6]): 2
Non-responder (YUMM1.7 cells; [7]): 6
Responder (YUMM1.7 cells; [7]): 1
Response rate (%) (YUMM1.7 cells; FIG. 17G: YUMM1.7 in C57BL/6, anti-CD8 depletion, PRMT5i from day 8, anti-PD-1 days 9, 12, 15, 18): 14.3%

Compound: CSC[C@H]1O[C@@H](n2cnc3c(N)ncnc32)[C@H](O)[C@@H]1O [MTA]
basal Nlrc5 expression and that of Nlrc5 target genes (Tap1, B2m, Psmb9) [3]: increased

Compound: poly(I:C)
Ifnb1 and chemokine expression (RIG-I/TLR3): induced
